Reference: US20070117818A1, “Pyrimidinone compounds useful as kinase inhibitors” (priority 2004, published 2007)

target: T1, hYAK3 (Homo sapiens, UniProt O43781); test: YAK3 Scintillation Proximity Assay using Ser164 of myelin basic protein as phosphoacceptor (kinase assay of purified hYAK3); type: biochemical; settings: purified GST-hYak3-His6 (aa 124-526), 0.001 mM ATP, 4 μM Ser164 peptide, 2 hours at room temperature; pIC50 = −log10(IC50)
T1 construct: made in house; host or cells: baculovirus expression system in Sf9 cells
T1 sequence (O43781 124-526): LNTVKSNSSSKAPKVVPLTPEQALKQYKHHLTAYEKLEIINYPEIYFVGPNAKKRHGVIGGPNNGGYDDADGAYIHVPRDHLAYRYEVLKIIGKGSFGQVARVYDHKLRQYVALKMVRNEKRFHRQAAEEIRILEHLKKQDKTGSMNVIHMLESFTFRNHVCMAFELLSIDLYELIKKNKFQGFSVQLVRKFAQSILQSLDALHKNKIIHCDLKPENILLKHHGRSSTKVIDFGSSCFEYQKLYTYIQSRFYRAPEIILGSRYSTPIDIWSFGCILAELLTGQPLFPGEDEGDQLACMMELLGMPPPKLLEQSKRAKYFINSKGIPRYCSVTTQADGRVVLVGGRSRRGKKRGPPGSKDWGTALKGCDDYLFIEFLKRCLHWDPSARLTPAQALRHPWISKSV
Procedure: Substrate phosphorylation assays were carried out as follows:
YAK3 Scintillation Proximity Assays Using Ser164 of Myelin Basic Protein as the phosphoacceptor
The source of Ser164 substrate oeptide The biotinylated Ser164, S164A peptide (Biotinyl-LGGRDSRAGS*PMARR-OH), sequence derived from the C-terminus of bovine myelin basic protein (MBP) with Ser162 substituted as Ala162, was purchased from California Peptide Research Inc. (Napa, Calif.), and its purity was determined by HPLC. Phosphorylation occurs at position 164 (marked S* above). The calculated molecular mass of the peptide was 2166 dalton. Solid sample was dissolved at 10 mM in DMSO, aliquoted, and stored at −20° C. until use.
hYAK3: Glutathione-S-Transferase (GST)-hYak3-His6 containing amino acid residues 124-526 of human YAK3 (aa 124-526 of SEQ ID NO 2. in U.S. Pat. No. 6,323,318) was purified from baculovirus expression system in Sf9 cells using Glutathione Sepharose 4B column chromatography followed by Ni-NTA-Agarose column chromatography. Purity greater than 65% typically was achieved. Samples, in 50 mM Tris, 150 mM NaCl, 10% glycerol, 0.1% Triton, 250 mM imidazole, 10 mM β-mercapto ethanol, pH 8.0. were stored at −80° C. until use.
Kinase assay of purified hYAK3: Assays were performed in 96 well (Costar, Catalog No. 3789) or 384 well plates (Costar, Catalog No. 3705). Reaction (in 20, 25, or 40 μl volume) mix contained in final concentrations 25 mM Hepes buffer, pH 7.4; 10 mM MgCl2; 10 mM β-mercapto ethanol; 0.0025% Tween-20; 0.001 mMATP, 0.1 μCi of [γ-^33P]ATP; purified hYAK3 (7-14 ng/assay; 4 nM final); and 4 μM Ser164 peptide. Compounds, titrated in DMSO, were evaluated at concentrations ranging from 50 μM to 0.5 nM. […] Reactions were incubated for 2 hours at room temperature and were stopped by a 75 ul addition of 0.19 μg Streptavidin Scintillation Proximity beads (Amersham Pharmacia Biotech, Catalog No. RPNQ 0007) in PBS, pH 7.4, 10 mM EDTA, 0.1% Triton X-100, 1 mM ATP. Under the assay conditions defined above, the Km(apparent) for ATP was determined to be 7.2+-2.4 μM.

IC50 [nM] | Compound
1.02 to 10 | NS(=O)(=O)c1cccc(Nc2nc(-c3ccc4nc(NC(=O)c5cccs5)[nH]c4c3)cc(=O)[nH]2)c1 [Ig, N-[5-(2-{[3-(Aminosulfonyl)phenyl]amino}-6-oxo-1,6-dihydro-4-pyrimidinyl)-1H-benzimidazol-2-yl]-2-thiophenecarboxamide]
10.2 to 100 | COCCNc1nc(-c2ccc3nc(NC(=O)c4cccs4)[nH]c3c2)cc(=O)[nH]1 [Il, N-[5-(2-{[2-(Methyloxy)ethyl]amino}-6-oxo-1,6-dihydro-4-pyrimidinyl)-1H-benzimidazol-2-yl]-2-thiophenecarboxamide]
102 to 1000 | O=C(Nc1nc2ccc(-c3cc(=O)[nH]c(NCCc4ccc(Cl)cc4Cl)n3)cc2[nH]1)c1cccs1 [Ip, N-[5-(2-{[2-(2,4-Dichlorophenyl)ethyl]amino}-6-oxo-1,6-dihydro-4-pyrimidinyl)-1H-benzimidazol-2-yl]-2-thiophenecarboxamide]
